ChEMBL document CHEMBL1201862, “PubChem BioAssay data set” (2004)
Calls of active or inactive are those of the source.

Legend:
[1] = molecular target: fMet-Leu-Phe receptor (Homo sapiens, UniProt P21462); experiment: FPR ligands, dose response (AID 519); assay type: functional
[2] = molecular target: Kallikrein-7 (Homo sapiens, UniProt P49862); experiment: Fluorescence Intensity-based biochemical primary high throughput dose response assay to identify activators of kallikrein-7 (K7) zymogen.
[3] = LGR2 antagonists, dose response, cell-based, HEK293, CRE-luciferase reporter, cherry pick, set 2 (AID 743343); assay type: functional;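 also: transfected cells were stimulated with diluted bursicon conditioned medium after compound addition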
[4] = Luminescence Cell-Based Dose Response HTS to Identify Inhibitors of 5'UTR Stem-Loop Driven Prion Protein mRNA Translation in H4 Neuroglioblastoma Cells. [Related pubchem assays: 1827 (Project Summary), 1813 (Primary HTS)]; assay type: functional
[5] = cells
[6] = tested on: HEK293; experiment: inhibitors of LMP1-driven NF-kB reporter, dose response, cell-based, HEK293, luciferase, cherry-pick (AID 588343); assay type: functional; settings: Homo sapiens
[7] = HEK293 cell cytotoxicity, dose response, cytotoxicity control, plate reader, cherry-picked samples (AID 743446); assay type: functional, cell-based
[8] = HepG2 cell cytotoxicity, dose response, cytotoxicity control, plate reader, cherry-pick, antagonist series (AID 743416); assay type: functional, cell-based
[9] = MC4R antagonists, dose response, counter-screen for LGR2 antagonist project, cell-based, plate reader, cherry pick (AID 743444); assay type: functional;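 also: transfected HEK 293 cells stimulated with alpha-MSH peptide; potency of inhibitors of the alpha-MSH evoked signal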
[10] = molecular target: Oxysterols receptor LXR-beta (Homo sapiens, UniProt P55055); assay type: functional, cell-based;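 also: Cell-based luminescence dose-response assay of agonist activity at LXR, run as a confirmatory counterscreen to a daf-12 agonist screen; HEK293 cells with Gal4-LXR fusion and GAL4-driven luciferase reporter; agonist potency from rising luciferase signal of a Gal4-LXR reporter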
[11] = inhibitors of SNCA 5'UTR-driven reporter translation, confirmation, H4 neuroglioma cells, luminescence (AID 1988); assay type: functional, cell-based
[12] = A549 cell cytotoxicity, dose response, cytotoxicity control, plate reader, cherry-pick, antagonist series (AID 743412); assay type: functional, cell-based
[13] = molecular target: Protein Wnt-3a (Mus musculus, UniProt P27467); experiment: SAR analysis of small molecule antagonists of Gli-SUFU in a Wnt3a luminescent reporter assay.; assay type: functional
[14] = T. cruzi growth inhibition in host cells, dose response, cell-based, plate reader, dry powder, set 2 (AID 652275); assay type: functional
[15] = inhibitors of CMV-promoter luciferase reporter, dose response, counter-screen for Pax8 inhibitor project, cell-based, HEK293, luminescence, dry powder (AID 743020); assay type: functional

Protein Wnt-3a, sequence (P27467 whole entry): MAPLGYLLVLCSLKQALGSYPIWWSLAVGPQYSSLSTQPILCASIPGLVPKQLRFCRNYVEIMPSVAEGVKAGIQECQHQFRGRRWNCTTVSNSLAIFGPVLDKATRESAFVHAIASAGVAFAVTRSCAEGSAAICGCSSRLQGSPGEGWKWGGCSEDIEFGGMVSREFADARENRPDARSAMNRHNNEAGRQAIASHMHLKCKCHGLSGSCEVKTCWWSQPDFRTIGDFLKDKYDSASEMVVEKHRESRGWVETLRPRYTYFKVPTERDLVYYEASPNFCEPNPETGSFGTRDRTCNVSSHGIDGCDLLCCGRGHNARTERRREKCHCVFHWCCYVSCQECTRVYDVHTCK
fMet-Leu-Phe receptor, sequence (P21462 whole entry): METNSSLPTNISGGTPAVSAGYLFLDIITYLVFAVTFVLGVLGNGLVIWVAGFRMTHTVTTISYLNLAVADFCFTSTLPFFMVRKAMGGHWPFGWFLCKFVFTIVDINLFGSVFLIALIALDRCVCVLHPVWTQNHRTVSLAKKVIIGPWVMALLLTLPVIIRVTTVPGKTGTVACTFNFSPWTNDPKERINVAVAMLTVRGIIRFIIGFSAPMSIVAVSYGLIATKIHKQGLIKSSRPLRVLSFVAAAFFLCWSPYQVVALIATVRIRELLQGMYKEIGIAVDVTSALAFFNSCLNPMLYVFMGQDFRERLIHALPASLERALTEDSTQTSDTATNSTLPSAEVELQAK
Oxysterols receptor LXR-beta, sequence (P55055 whole entry, the tested form may be a part): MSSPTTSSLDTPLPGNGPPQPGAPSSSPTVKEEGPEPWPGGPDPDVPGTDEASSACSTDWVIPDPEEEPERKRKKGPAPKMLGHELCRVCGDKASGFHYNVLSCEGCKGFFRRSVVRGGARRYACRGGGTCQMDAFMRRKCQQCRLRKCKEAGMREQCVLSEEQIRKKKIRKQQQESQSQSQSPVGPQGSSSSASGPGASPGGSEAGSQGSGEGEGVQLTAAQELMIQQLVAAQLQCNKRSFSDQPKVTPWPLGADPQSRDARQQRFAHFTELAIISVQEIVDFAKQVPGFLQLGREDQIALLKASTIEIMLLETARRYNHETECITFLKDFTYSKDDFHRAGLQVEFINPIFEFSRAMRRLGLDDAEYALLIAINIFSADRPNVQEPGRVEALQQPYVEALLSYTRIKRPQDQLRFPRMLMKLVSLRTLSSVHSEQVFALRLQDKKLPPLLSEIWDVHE
Kallikrein-7, sequence (P49862 whole entry): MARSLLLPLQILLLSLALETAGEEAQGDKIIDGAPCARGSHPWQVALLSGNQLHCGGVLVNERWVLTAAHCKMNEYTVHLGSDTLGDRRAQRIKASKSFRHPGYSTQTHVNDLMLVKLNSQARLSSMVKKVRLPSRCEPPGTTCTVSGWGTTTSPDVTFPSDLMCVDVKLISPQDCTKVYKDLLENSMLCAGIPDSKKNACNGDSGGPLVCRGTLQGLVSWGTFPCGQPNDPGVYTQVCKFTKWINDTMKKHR

For `COc1ccccc1NC(=O)CSc1nnc(Cn2nnc(-c3ccccc3)n2)n1-c1ccccc1`, the Ki [1] was > 66.7 µM (inactive).

In the case of `O=C(NCc1cccnc1)C1c2ccccc2C(=O)N1C1CCCCCCC1` (stereo not given), the Ki [1] is reported as 40.9 µM (inactive).

With `COC(=O)C1=CN(CC2CCCO2)C=C(C(=O)OC)C1c1ccsc1` (stereo not given) the EC50 [2] was > 69.5 µM (inactive).

With `Cc1ccc(CSc2nc3cc[nH]cc-3n2)cc1` the AC50 [3] was 2.93 µM (active), the EC50 [4] was 10.8 µM (active) and the EC50 [5] was > 67.5 µM (inactive). For the same molecule, the AC50 [6] was 1.9 µM (active), the AC50 [7] was > 52 µM (inactive) and the AC50 [8] was 31.6 µM (active). The AC50 [9] was 2.98 µM (active), the EC50 [10] was > 67.5 µM (inactive) and the EC50 [11] was 7.38 µM (active). The AC50 [12] was 26.5 µM (active).

In the case of `O=C(Nc1cc(N2CCCCC2)ncn1)c1ccccc1`, the IC50 [13] is reported as > 21.8 µM (inactive).

In the case of `O=C(Cc1ccccn1)N1CCCCN2[C@@H](CO)[C@H](c3ccc(Br)cc3)[C@@H]2C1`, the AC50 [14] is reported as 2.31 µM (active).

In the case of `c1ccc(-c2nnc(-c3ccccn3)s2)nc1`, the EC50 [5] is reported as > 67.5 µM (inactive), the AC50 [6] is reported as 4.63 µM (active) and the EC50 [10] is reported as > 67.5 µM (inactive).

For `C[C@@H]1CN([C@@H](C)CO)C(=O)CCCn2nncc2CO[C@H]1CN(C)S(=O)(=O)c1ccc(Cl)cc1`, the AC50 [15] was < 1 µM (active).

In the case of `CN1CCN(c2cc(NC(=O)c3ccccc3)ncn2)CC1`, the IC50 [13] is reported as > 21.8 µM (inactive).
